# Reference: patent US20070134157A1, “Biological assay” (priority 2004, published 2007)
# Tests used:
# [1] = plasma levels during continuous intravenous infusion; type: in vivo, rat; conditions: for concentration at 10 min / concentration at 20 min: male, Sprague Dawley, rat, plasma, intravenous; for concentration at 10 min: 10 min after start; for concentration at 20 min: 20 min after start
# Experimental: (§1) Adult, male Sprague Dawley rats (240-280 g) were used for all studies. Rats were anesthetized with a mixture of ketamine:xylazine (85 mg/kg:5 mg/kg, ip). Catheters were placed in the left femoral artery and left femoral vein for the measurement of arterial pressure and the administration of test agents, respectively. In addition, a catheter was placed in the right femoral vein to administer a continuous infusion of ketamine:xylazine (45 mg/kg/hr:1.5 mg/kg/hr). A recording/stimulating catheter was then placed in the right jugular vein and advanced to the right atrium. Two electrodes were used to obtain bipolar atrial electrogram recording, and two were used for bipolar pacing of the atria/heart. The right carotid artery was then cannulated with a second recording/stimulating catheter, and the catheter was advance into the left ventricle. Two electrodes were used to obtain bipolar ventricular and His bundle electrograms, and two were used to pace the ventricle. Needle electrodes were placed subcutaneously in the right axillary and left inguinal areas to record lead II electrocardiogram. After equilibration and baseline readings, continuous infusion of test agent or vehicle was started and readings taken at 10 min and 20 min after start of infusion. Blood samples for plasma analysis were obtained from the femoral artery catheter at 10 and 20 min after the start of the infusion. Atrial effective (ARP), ventricular effective (VRP), and AV node effective (AVRP) refractory periods determined as follows: excitation threshold was determined for the atria and ventricles, then a conditioning train of stimuli (S1, 1 ms duration) at a cycle length of 150 ms was delivered at 1×-2× threshold followed by an extrastimulus (S2, 1 ms duration) at 2× threshold. The S1—S2 coupling interval was decreased by 5 ms, then 1 ms intervals to obtain refractory periods. ARP and VRP were defined as the shortest coupling interval that permitted propagation of an atrial or ventricular extrastimulus. AVRP was defined as the shortest coupling interval that permitted the propagation of the atria extrastimulus through the AV node to elicit ventricular depolarization. In addition, PR, AH (both a measure of AV nodal conduction) and HV (a measure of His-Purkinje conduction) intervals were measured during short (10-20 sec) trains of fixed S1—S1 interval pacing of 150 ms. QT interval was obtained during sinus rhythm. […] Am J Physiol. 1998;274:H747-51) were reported. Compounds were dissolved in either saline or N,N-dimethylformamide. Intravenous infusion of test agents or vehicles was normalized to body weight.
# Sprague Dawley rats [2] = experiment: rat electrocardiogram/electrophysiology model, 20-min continuous intravenous infusion; type: in vivo; conditions: for Percent change AH / Percent change ARP / Percent change AVRP / Percent change HR / Percent change HV / Percent change MAP / Percent change PR / Percent change QRS / Percent change QT / Percent change QTc / Percent change VRP: after a 20 min infusion, ± se
# Experimental: as §1
# In an extension of these studies to longer duration infusions, 3-[(dimethylamino)methyl]-6-methoxy-2-methyl-4-phenylisoquinolin-1(2H)-one hydrochloride and (2-isopropyl-5-methylcyclohexyl)(diphenyl)phosphine oxide were tested in a 20-min intravenous continuous infusion protocol. […] Plasma levels of 3-[(dimethylamino)methyl]-6-methoxy-2-methyl-4-phenylisoquinolin-1(2H)-one hydrochloride at 10 and 20 min after the start of a 0.1 mg/kg/min infusion were 3.4±0.2 μM and 2.8±0.3 μM, respectively.
# Sprague Dawley rats [3] = experiment: rat electrocardiogram/electrophysiology model, 5-min intravenous infusion paradigm; type: in vivo; conditions: readings immediately after the infusion, dose dependent
# Experimental: as §1
# Two infusion paradigms were tested with two structurally distinct Kv1.5 antagonists, 3-[(dimethylamino)methyl]-6-methoxy-2-methyl-4-phenylisoquinolin-1(2H)-one hydrochloride (described in WO 02/24655 A1) and (2-isopropyl-5-methylcyclohexyl)(diphenyl)phosphine oxide (described in U.S. Pat. No. 6,214,809 B1). In an initial shorter duration infusion paradigm, a 5-min intravenous infusion of compound or vehicle was administered with electrocardiogram/electrophysiology readings determined immediately after the infusion.
# [4] = 20-min infusion, dose that produced a similar increase in VRP as the Kv1.5 antagonists
# [5] = 0.1 mg/kg/min, 20-min after start of infusion
# [6] = 0.1 mg/kg/min, 10 min after start of infusion
# [7] = 0.2 mg/kg/min, DMF vehicle, 20-min infusion
# [8] = 0.2 mg/kg/min, saline vehicle, 10-min post infusion
# [9] = 0.2 mg/kg/min, saline vehicle, 20 min after start of infusion
# [10] = 0.2 mg/kg/min, 10-min post infusion
# [11] = 0.2 mg/kg/min, listed as (2-isopropyl-5-methylcyclohexyl)(diphenyl)phosphine oxide
# [12] = dose that caused a similar decrease in blood pressure as 0.03 mg/kg/min amlodipine
# [13] = doses that caused similar blood pressure lowering as higher infusion rates of amlodipine
compound,measurement,setting,value
"CS(=O)(=O)Nc1ccc2c(c1)C(O)CC1(CCN(C3CCc4cc(C#N)ccc4C3)CC1)O2.Cl [Ikr blocker, N-[1′-(6-cyano-1,2,3,4-tetrahydro-2(R)-naphthalenyl)-3,4-dihydro-4(R)-hydroxyspiro[2H-1-benzopyran-2,4′-piperidin]-6-YL]-,(+)-,monohydrochloride]",plasma concentrations,[1]; [4],~0.6 µM
same,plasma concentration,[1]; infusion of lower doses,0.027 µM
same,Percent change AH,Sprague Dawley rats [2]; 0.0001 mg/kg/min,2 ± 1%
same,Percent change ARP,Sprague Dawley rats [2]; 0.0001 mg/kg/min,0 ± 2%
same,Percent change AVRP,Sprague Dawley rats [2]; 0.0001 mg/kg/min,1 ± 2%
same,Percent change HR,Sprague Dawley rats [2]; 0.0001 mg/kg/min,−1 ± 5%
same,Percent change HV,Sprague Dawley rats [2]; 0.0001 mg/kg/min,−1 ± 1%
same,Percent change MAP,Sprague Dawley rats [2]; 0.0001 mg/kg/min,−7 ± 8%
same,Percent change PR,Sprague Dawley rats [2]; 0.0001 mg/kg/min,2 ± 2%
same,Percent change QRS,Sprague Dawley rats [2]; 0.0001 mg/kg/min,0 ± 1%
same,Percent change QT,Sprague Dawley rats [2]; 0.0001 mg/kg/min,1 ± 1%
same,Percent change QTc,Sprague Dawley rats [2]; 0.0001 mg/kg/min,0 ± 2%
same,Percent change VRP,Sprague Dawley rats [2]; 0.0001 mg/kg/min,−2 ± 1%
same,Percent change AH,Sprague Dawley rats [2]; 0.001 mg/kg/min,9 ± 1%
same,Percent change ARP,Sprague Dawley rats [2]; 0.001 mg/kg/min,2 ± 4%
same,Percent change AVRP,Sprague Dawley rats [2]; 0.001 mg/kg/min,11 ± 1%
same,Percent change HR,Sprague Dawley rats [2]; 0.001 mg/kg/min,3 ± 4%
same,Percent change HV,Sprague Dawley rats [2]; 0.001 mg/kg/min,−4 ± 3%
same,Percent change MAP,Sprague Dawley rats [2]; 0.001 mg/kg/min,−1 ± 3%
same,Percent change PR,Sprague Dawley rats [2]; 0.001 mg/kg/min,8 ± 1%
same,Percent change QRS,Sprague Dawley rats [2]; 0.001 mg/kg/min,3 ± 1%
same,Percent change QT,Sprague Dawley rats [2]; 0.001 mg/kg/min,−1 ± 1%
same,Percent change QTc,Sprague Dawley rats [2]; 0.001 mg/kg/min,1 ± 1%
same,Percent change VRP,Sprague Dawley rats [2]; 0.001 mg/kg/min,0 ± 1%
same,Percent change AH,Sprague Dawley rats [2]; 0.03 mg/kg/min,13 ± 4%
same,Percent change ARP,Sprague Dawley rats [2]; 0.03 mg/kg/min,4 ± 4%
same,Percent change AVRP,Sprague Dawley rats [2]; 0.03 mg/kg/min,21 ± 3%
same,Percent change HR,Sprague Dawley rats [2]; 0.03 mg/kg/min,22 ± 5%
same,Percent change HV,Sprague Dawley rats [2]; 0.03 mg/kg/min,4 ± 3%
same,Percent change MAP,Sprague Dawley rats [2]; 0.03 mg/kg/min,18 ± 5%
same,Percent change PR,Sprague Dawley rats [2]; 0.03 mg/kg/min,9 ± 4%
same,Percent change QRS,Sprague Dawley rats [2]; 0.03 mg/kg/min,0 ± 1%
same,Percent change QT,Sprague Dawley rats [2]; 0.03 mg/kg/min,11 ± 3%
same,Percent change QTc,Sprague Dawley rats [2]; 0.03 mg/kg/min,23 ± 5%
same,Percent change VRP,Sprague Dawley rats [2]; 0.03 mg/kg/min,7 ± 2%
same,increase in AH interval (delay in AV node conduction),Sprague Dawley rats [2]; [4],~13%
same,increase in AVRP,Sprague Dawley rats [2]; [4],21%
same,increase in HR,Sprague Dawley rats [2]; [4],22%
same,increase in MAP,Sprague Dawley rats [2]; [4],18%
same,ARP,Sprague Dawley rats [2]; infusion of lower doses,no change
same,AVRP,Sprague Dawley rats [2]; infusion of lower doses,significant changes
same,VRP,Sprague Dawley rats [2]; infusion of lower doses,no change
CCOC(=O)C1=C(COCCN)NC(C)=C(C(=O)OC)C1c1ccccc1Cl (centres unmarked) [amlodipine],decrease in blood pressure,Sprague Dawley rats [2]; 0.03 mg/kg/min for 20 min,−14%
same,decrease in blood pressure,Sprague Dawley rats [2]; higher infusion rates,30%
same,increase in AV nodal conduction,Sprague Dawley rats [2]; higher infusion rates,6%
same,increase in AV nodal refractoriness,Sprague Dawley rats [2]; higher infusion rates,7%
"COc1ccc2c(=O)n(C)c(CN(C)C)c(-c3ccccc3)c2c1.Cl [compound 1, 3-[(dimethylamino)methyl]-6-methoxy-2-methyl-4-phenylisoquinolin-1(2H)-one hydrochloride]","plasma levels, saline group versus DMF group","[1]; 0.2 mg/kg/min, dissolved in saline or DMF",similar
same,concentration at 10 min,[1]; 0.1 mg/kg/min infusion,3.4 ± 0.2 µM
same,concentration at 20 min,[1]; 0.1 mg/kg/min infusion,2.8 ± 0.3 µM
same,concentration at 10 min,[1]; 0.2 mg/kg/min infusion,6.3 ± 0.5 µM
same,concentration at 20 min,[1]; 0.2 mg/kg/min infusion,5.5 ± 0.2 µM
same,ARP,Sprague Dawley rats [3],increases
same,QT interval,Sprague Dawley rats [3],increases
same,VRP,Sprague Dawley rats [3],increases
same,ARP,Sprague Dawley rats [2]; [5],no change
same,increase in QT,Sprague Dawley rats [2]; [5],10%
same,increase in QTc,Sprague Dawley rats [2]; [5],16%
same,increase in VRP,Sprague Dawley rats [2]; [5],5%
same,increase in heart rate,Sprague Dawley rats [2]; [5],5%
same,ARP,Sprague Dawley rats [2]; [6],no change
same,QT,Sprague Dawley rats [2]; [6],slight increase
same,QTc,Sprague Dawley rats [2]; [6],slight increase
same,VRP,Sprague Dawley rats [2]; [6],no change
same,increase in ARP,Sprague Dawley rats [2]; [7],8%
same,increase in QT,Sprague Dawley rats [2]; [7],11%
same,increase in VRP,Sprague Dawley rats [2]; [7],13%
same,Percent change AH,Sprague Dawley rats [2]; 0.2 mg/kg/min,5 ± 1%
same,Percent change ARP,Sprague Dawley rats [2]; 0.2 mg/kg/min,5 ± 3%
same,Percent change AVRP,Sprague Dawley rats [2]; 0.2 mg/kg/min,4 ± 2%
same,Percent change HR,Sprague Dawley rats [2]; 0.2 mg/kg/min,−1 ± 4%
same,Percent change HV,Sprague Dawley rats [2]; 0.2 mg/kg/min,0 ± 3%
same,Percent change MAP,Sprague Dawley rats [2]; 0.2 mg/kg/min,2 ± 2%
same,Percent change PR,Sprague Dawley rats [2]; 0.2 mg/kg/min,3 ± 1%
same,Percent change QRS,Sprague Dawley rats [2]; 0.2 mg/kg/min,0 ± 0%
same,Percent change QT,Sprague Dawley rats [2]; 0.2 mg/kg/min,12 ± 2%
same,Percent change QTc,Sprague Dawley rats [2]; 0.2 mg/kg/min,11 ± 2%
same,Percent change VRP,Sprague Dawley rats [2]; 0.2 mg/kg/min,13 ± 1%
same,QT,Sprague Dawley rats [2]; [8],significant increases
same,VRP,Sprague Dawley rats [2]; [8],significant increases
same,change in RR interval,Sprague Dawley rats [2]; [9],−17%
same,heart rate,Sprague Dawley rats [2]; [9],significant increases
same,increase in ARP,Sprague Dawley rats [2]; [9],12%
same,increase in QT interval,Sprague Dawley rats [2]; [9],14%
same,increase in QTc,Sprague Dawley rats [2]; [9],24%
same,increase in VRP,Sprague Dawley rats [2]; [9],11%
"CC1CCC(C(C)C)C(P(=O)(c2ccccc2)c2ccccc2)C1 (centres unmarked) [compound 2, (2-isopropyl-5-methylcyclohexyl)(diphenyl)phosphine oxide]",ARP,Sprague Dawley rats [3],increases
same,QT interval,Sprague Dawley rats [3],increases
same,VRP,Sprague Dawley rats [3],increases
same,ARP,Sprague Dawley rats [2]; [10],significant increases
same,QT,Sprague Dawley rats [2]; [10],significant increases
same,VRP,Sprague Dawley rats [2]; [10],significant increases
same,Percent change AH,Sprague Dawley rats [2]; 0.2 mg/kg/min,−1 ± 1%
same,Percent change ARP,Sprague Dawley rats [2]; 0.2 mg/kg/min,26 ± 4%
same,Percent change AVRP,Sprague Dawley rats [2]; 0.2 mg/kg/min,−1 ± 1%
same,Percent change HR,Sprague Dawley rats [2]; 0.2 mg/kg/min,8 ± 6%
same,Percent change HV,Sprague Dawley rats [2]; 0.2 mg/kg/min,−8 ± 3%
same,Percent change MAP,Sprague Dawley rats [2]; 0.2 mg/kg/min,4 ± 4%
same,Percent change PR,Sprague Dawley rats [2]; 0.2 mg/kg/min,−3 ± 1%
same,Percent change QRS,Sprague Dawley rats [2]; 0.2 mg/kg/min,−3 ± 4%
same,Percent change QT,Sprague Dawley rats [2]; 0.2 mg/kg/min,27 ± 7%
same,Percent change QTc,Sprague Dawley rats [2]; 0.2 mg/kg/min,33 ± 8%
same,Percent change VRP,Sprague Dawley rats [2]; 0.2 mg/kg/min,22 ± 5%
same,Percent change ARP,Sprague Dawley rats [2]; [11],24%
same,Percent change QT,Sprague Dawley rats [2]; [11],27%
same,Percent change QTc,Sprague Dawley rats [2]; [11],33%
same,Percent change VRP,Sprague Dawley rats [2]; [11],22%
COc1ccc([C@@H]2Sc3ccccc3N(CCN(C)C)C(=O)[C@@H]2OC(C)=O)cc1 [diltiazem],decrease in heart rate,Sprague Dawley rats [2]; [12],12%
same,increase in AV nodal conduction,Sprague Dawley rats [2]; [12],9%
same,increase in AV nodal refractoriness,Sprague Dawley rats [2]; [12],10%
same,blood pressure lowering,Sprague Dawley rats [2]; [13],23%
same,increase in AV nodal conduction,Sprague Dawley rats [2]; [13],15%
same,increase in AV nodal refractoriness,Sprague Dawley rats [2]; [13],19%
CCN(CC)CCNC(=O)c1ccc(N)cc1 [procainamide],HV interval,Sprague Dawley rats [2]; infusion at increasing rates,dose-dependent increases
same,QRS interval,Sprague Dawley rats [2]; infusion at increasing rates,dose-dependent increases
same,blood pressure,Sprague Dawley rats [2]; infusion at increasing rates,without having significant effects
same,heart rate,Sprague Dawley rats [2]; infusion at increasing rates,without having significant effects
